Results published in BindingDB's records for doi:10.7270/Q23R0R98 (Johns Hopkins Ion Channel Center, 2010).
pIC50: −log10 of the molar value. Where a name gives a salt, the structure may show the parent alone.

These compounds were tested against T1, Inward rectifier potassium channel 2 (Mus musculus, UniProt P35561) (assay: Kir2.1 inward rectifier channel blockers, dose response, mouse Kir2.1 (AID 2594)).
T1 sequence (P35561 whole entry): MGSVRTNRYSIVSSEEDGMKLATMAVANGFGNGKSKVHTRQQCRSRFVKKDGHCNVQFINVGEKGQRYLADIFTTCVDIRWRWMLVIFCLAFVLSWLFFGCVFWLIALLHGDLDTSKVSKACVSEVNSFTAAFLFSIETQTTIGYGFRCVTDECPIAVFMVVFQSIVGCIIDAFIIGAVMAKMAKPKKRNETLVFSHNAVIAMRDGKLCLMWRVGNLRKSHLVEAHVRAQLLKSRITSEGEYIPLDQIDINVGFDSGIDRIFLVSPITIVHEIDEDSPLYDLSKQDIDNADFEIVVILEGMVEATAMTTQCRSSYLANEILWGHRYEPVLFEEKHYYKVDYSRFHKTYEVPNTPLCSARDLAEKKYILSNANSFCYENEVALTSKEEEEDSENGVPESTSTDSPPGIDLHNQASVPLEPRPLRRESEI
`COc1ccc(CNCCc2ccc3c(c2)OCO3)cc1Br` [SMR000555601] was tested, and the pIC50 was 4.46. Work on `CCCN1CCC(NC23CC4CC(CC(C4)C2)C3)CC1` [N-(1-adamantyl)-1-propyl-4-piperidinamine] yielded a pIC50 of 4.27. Work on `CCn1c(COc2ccccc2)nnc1SCc1ccc(C#N)cc1` [4-[[4-ethyl-5-(phenoxymethyl)-1,2,4-triazol-3-yl]sulfanylmethyl]benzonitrile] yielded a pIC50 of 4.32. Work on `CC(O)CNCCCOc1cccc(Oc2ccccc2)c1` (stereo not given) [oxalic acid;1-[3-(3-phenoxyphenoxy)propylamino]-2-propanol] yielded a pIC50 of 4.63. `Cc1ccc(OCC(O)CNCc2ccc(F)cc2)cc1` (stereo not given) [1-[(4-fluorophenyl)methylamino]-3-(4-methylphenoxy)propan-2-ol] gave a pIC50 of 4.61. Work on `O=S(=O)(c1ccc(F)cc1)N1CCCc2ccccc21` [SMR000514216] yielded a pIC50 of 4.23. In the case of `Cc1ccc(Nc2cc(C)nc3c(C)cccc23)cc1` [2,8-dimethyl-N-(4-methylphenyl)quinolin-4-amine], the pIC50 was 4.37. `CSc1ccc(S(=O)(=O)NC(C)c2ccccc2)cc1` (stereo not given) [MLS000693878] gave a pIC50 of 4.37. `CC(C)(C)OC(=O)NCCc1nnc(SCc2ccc(Cl)cc2)o1` [MLS000557943] was tested, and the pIC50 was 4.80. In the case of `CC(NS(=O)(=O)c1ccc(Br)cc1)c1ccccc1` (stereo not given) [SMR000516693], the pIC50 was 4.59. For `CCn1c(Sc2ccc(N)cc2Cl)nc2ccccc21` [SMR000078102], the pIC50 was 4.45. `COc1ccc(CNC/C=C/c2ccccc2)cc1` [(E)-N-[(4-methoxyphenyl)methyl]-3-phenyl-prop-2-en-1-amine;hydrochloride] was tested, and the pIC50 was 4.65. `CC(NS(=O)(=O)c1ccc(Br)s1)c1ccccc1` (stereo not given) was tested, and the pIC50 was 4.70. Work on `COc1ccc(CNCc2cccc3ccccc23)cc1` yielded a pIC50 of 4.57. `Fc1ccc(N2CCN(Cc3c[nH]c4ccccc34)CC2)cc1` [3-[[4-(4-fluorophenyl)piperazin-1-yl]methyl]-1H-indole] was tested, and the pIC50 was 4.51. `Cc1ccc(O)c(CNCCNCc2cc(C)ccc2O)c1` [4-methyl-2-[[2-[(5-methyl-2-oxidanyl-phenyl)methylamino]ethylamino]methyl]phenol] was tested, and the pIC50 was 4.67. Compound `COc1ccc(Nc2ccnc3ccccc23)cc1` [SMR000033695] has a pIC50 of 4.47. For `Cc1ccc2[nH]c(NCc3ccccc3)nc2c1` [MLS000081058], the pIC50 was 4.48. For `c1ccc(COc2ccc(OCCCNC3CCCC3)cc2)cc1` [MLS000535503], the pIC50 was 4.47. Work on `Clc1ccc(CNC2CCN(Cc3ccccc3)CC2)cc1` [N-[(4-chlorophenyl)methyl]-1-(phenylmethyl)-4-piperidinamine] yielded a pIC50 of 4.42.
